Laboratory results published in US10150737B2, “Compounds for controlling arthropods” (priority 2013, dated 2018).

Columns and labels:
[1] = logP determination by HPLC on a reversed-phase column (C18); format: physicochemical; details: for logP^a): HPLC-MS method a); for log P: HPLC-MS; for logP: HPLC, C18 reversed phase, acetonitrile/water with formic acid, EEC Directive 79/831 Annex V.A8
Rhipicephalus sanguineus = Rhipicephalus sanguineus - in vitro contact tests with adult brown dog ticks; format: in vivo; details: after 48 h, ticks dead or moribund
Experimental: For the coating of the test tubes, 9 mg of active ingredient are first dissolved in 1 ml of acetone p.a. and then diluted to the desired concentration with acetone p.a. 250 μl of the solution are distributed homogeneously on the inner walls and base of a 25 ml test tube by turning and rocking on an orbital shaker (rocking rotation at 30 rpm for 2 h). With 900 ppm active ingredient solution and internal surface 44.7 cm^2, given homogeneous distribution, an area-based dose of 5 μg/cm^2 is achieved.
After the solvent has evaporated off, the tubes are populated with 5-10 adult dog ticks (Rhipicephalus sanguineus), sealed with a perforated plastic lid and incubated in a horizontal position in the dark at room temperature and ambient humidity. After 48 h, efficacy is determined. To this end, the ticks are knocked to the floor of the tube and incubated on a hotplate at 45-50° C. for not more than 5 min. Ticks which remain motionless on the floor or move in such an uncoordinated manner that they are unable to deliberately avoid the heat by climbing upwards are considered to be dead or moribund.
An efficacy of 100% means that all the ticks were dead or moribund. 0% efficacy means that none of the ticks had been harmed.

Boophilus microplus = Boophilus microplus - injection test; format: in vivo; details: application rate 20 μg/animal, injection into engorged adult female ticks, after 7 days
Outline: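 Active ingredient in DMSO, 1 μl injected into the abdomen of 5 engorged adult female ticks, then held in a climate-controlled room. Efficacy scored after 7 days from laying of fertile eggs, with non-fertile-looking eggs kept about 42 days for larval hatch; 100% means no fertile eggs.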

Ctenocephalides felis [2] = test: Ctenocephalides felis - oral test; format: in vivo; details: application rate 100 ppm in citrated cattle blood; after 2 days
Outline: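 Compound in DMSO diluted into citrated cattle blood, fed through a parafilm membrane to about 20 unfed adult cat fleas. Kill in % scored after 2 days (100% = all dead).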

Lucilia cuprina = Lucilia cuprina test; format: in vivo; details: application rate 100 ppm; L1 larvae; after 2 days
Outline: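 About 20 L1 larvae placed on minced horsemeat treated with compound, formulated in DMSO and diluted with water to test concentration. Kill in % scored after 2 days (100% = all larvae dead, 0% = none).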

Musca domestica = Musca domestica test; format: in vivo; details: application rate 100 ppm; adult houseflies; after 2 days
Outline: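 Feeding exposure: adult Musca domestica, 10 per vessel, given a sponge with sugar solution and test formulation at the desired concentration; % mortality determined on day 2.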

Myzus persicae = Myzus persicae - spray test; format: in vivo; details: Chinese cabbage leaf discs, after 6 days
Outline: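 Chinese cabbage leaf discs carrying all stages of Myzus persicae sprayed with compound in acetone/DMF diluted in water with 1000 ppm emulsifier. Efficacy (% aphids killed) assessed after 6 days.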

Phaedon cochleariae = Phaedon cochleariae - spray test; format: in vivo; details: larvae on Chinese cabbage leaf discs, after 7 days
Outline: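 Chinese cabbage leaf discs sprayed with compound formulated in acetone/DMF and water containing 1000 ppm emulsifier; once dry, infested with mustard beetle larvae. Efficacy (% larvae killed) scored after 7 days.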

Spodoptera frugiperda = Spodoptera frugiperda - spray test; format: in vivo; details: caterpillars on maize leaf discs, after 7 days
Outline: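 Maize leaf discs sprayed with compound formulated in acetone/DMF and diluted in water containing 1000 ppm alkylaryl polyglycol ether emulsifier, then infested with armyworm caterpillars after drying. Efficacy scored after 7 days as % caterpillars killed (100% all, 0% none).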

Tetranychus urticae = Tetranychus urticae - spray test, OP-resistant; format: in vivo; details: bean leaf discs, after 6 days
Outline: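 Compound dissolved in acetone/DMF, diluted with water containing 1000 ppm alkylaryl polyglycol ether emulsifier to test concentrations. Bean leaf discs infested with all stages of spider mites were sprayed; % kill determined after 6 days (100% = all mites dead, 0% = none).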

Ctenocephalides felis [3] = test: Ctenocephalides felis - in vitro contact tests with adult cat fleas; format: in vivo; details: application rate 5 μg/cm2 (=500 g/ha); after 48 h; fleas dead or moribund
Outline: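 Tubes coated with compound in acetone (250 μl of 900 ppm solution gives 5 μg/cm^2 on 44.7 cm^2), solvent evaporated, then 5–10 adult fleas added and kept horizontal at room temperature and ambient humidity. After 48 h, dead or moribund (motionless/uncoordinated) fleas scored as % efficacy.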

[4] = reversed-phase column (C18), Table I-T3

SMILES | logP^a) [1] | logP^a) [1, 4] | efficacy (Rhipicephalus sanguineus; application rate 5 μg/cm2) | efficacy (laying of fertile eggs) (Boophilus microplus) | efficacy (kill) (Ctenocephalides felis [2]) | efficacy (kill) (Lucilia cuprina) | efficacy (kill) (Musca domestica) | efficacy (Phaedon cochleariae; application rate 100 g/ha) | efficacy (Spodoptera frugiperda; application rate 100 g/ha) | efficacy (Tetranychus urticae; application rate 100 g/ha) | efficacy (Ctenocephalides felis [3]) | log P [1, 4] | also measured
CCc1cc(C(F)(C(F)(F)F)C(F)(F)F)ccc1-n1cc(-c2ccc(Cl)c(C(=O)NC3(C#N)CC3)c2)cn1 [I-T3-38] | 4.5 | 4.5 | 80% | 100% | 100% | 100% | 100% | 100% | 100% | 100% | – | – | efficacy (Myzus persicae; application rate 100 g/ha): 90%
CCc1cc(C(F)(C(F)(F)F)C(F)(F)F)cc(C)c1-n1cc(-c2ccc(Cl)c(C(=O)NC3(C#N)CC3)c2)cn1 [I-T3-46] | 4.6 | 4.6 | 100% | 100% | 100% | 100% | 100% | – | – | – | 100% | – | efficacy (Myzus persicae; application rate 500 g/ha): 100%; efficacy (Phaedon cochleariae; application rate 500 g/ha): 100%; efficacy (Spodoptera frugiperda; application rate 500 g/ha): 100%; efficacy (Tetranychus urticae; application rate 500 g/ha): 100%
CCc1cc(C(F)(C(F)(F)F)C(F)(F)F)cc(C)c1-n1cc(-c2ccc(Cl)c(C(=O)NC3CSC3)c2)cn1 [I-T3-47] | 5.0 | 5.0 | 100% | 100% | 100% | 100% | – | – | – | – | – | – | efficacy (Phaedon cochleariae; application rate 500 g/ha): 100%; efficacy (Spodoptera frugiperda; application rate 500 g/ha): 100%; efficacy (Tetranychus urticae; application rate 500 g/ha): 100%
O=C(NC1CC1)c1cc(-c2cnn(-c3ccc(C(F)(C(F)(F)F)C(F)(F)F)cc3C(F)(F)F)c2)ccc1Cl [I-T3-52] | 4.3 | 4.3 | 100% | 100% | 100% | 100% | 100% | 100% | 100% | 90% | – | – | –
O=C(NC1CC1)c1cc(-c2cnn(-c3c(Cl)cc(OC(F)(F)F)cc3Cl)c2)ccc1Cl [I-T3-88] | 3.6 | 3.6 | 80% | 100% | 100% | 100% | 80% | 100% | 100% | 100% | 100% | – | efficacy (Myzus persicae; application rate 100 g/ha): 100%
O=C(NC1CC1)c1cc(-c2cnn(-c3ccc(OC(F)(F)F)cc3Cl)c2)ccc1Cl [I-T3-90] | 3.6 | – | 100% | 100% | 100% | 100% | 90% | – | – | – | – | 3.6 | efficacy (Phaedon cochleariae; application rate 500 g/ha): 100%; efficacy (Spodoptera frugiperda; application rate 500 g/ha): 100%; efficacy (Tetranychus urticae; application rate 500 g/ha): 90%
COc1ncc(-c2cnn(-c3c(C)cc(C(F)(C(F)(F)F)C(F)(F)F)cc3C)c2)cc1C(=O)NC1(C#N)CC1 [I-T3-141] | – | – | – | 100% | 100% | 100% | 100% | 100% | 100% | – | – | 4.4 | logP^a) ([1]; reversed-phase column (C18)): 4.4; efficacy (Rhipicephalus sanguineus; application rate 1 μg/cm2): 100%
COc1ncc(-c2cnn(-c3c(C)cc(C(F)(C(F)(F)F)C(F)(F)F)cc3C)c2)cc1C(=O)NC1CC1 [I-T3-143] | – | – | 80% | 100% | 100% | 100% | 100% | 100% | 100% | – | 100% | 4.6 | logP^a) ([1]; reversed-phase column (C18)): 4.6
Cc1cc(C(F)(C(F)(F)F)C(F)(F)F)cc(C(F)(F)F)c1-n1cc(-c2ccc(Cl)c(C(=S)NC3CC3)c2)cn1 [I-T3-161, 2-chloro-N-cyclopropyl-5-[1-[2-methyl-4-[1,2,2,2-tetrafluoro-1-(trifluoromethyl)ethyl]-6-(trifluoromethyl)phenyl]pyrazo-4-yl]benzenecarbothioamide] | – | – | 100% | 100% | 100% | 100% | 100% | 100% | 100% | 100% | – | 5.0 | logP [1]: 5.0; logP^a) ([1]; reversed-phase column (C18)): 5.0
O=C(NC1CC1)c1cc(-c2cnn(-c3c(Cl)cc(C(F)(C(F)(F)F)C(F)(F)F)cc3OC(F)(F)F)c2)cnc1Cl [I-T3-189] | – | – | 100% | – | 100% | 100% | 100% | 100% | 100% | 100% | 100% | 4.3 | efficacy (Myzus persicae; application rate 100 g/ha): 100%
O=C(NC1CC1)c1cc(-c2cnn(-c3c(Cl)cc(C(F)(C(F)(F)F)C(F)(F)F)cc3OC(F)F)c2)cnc1Cl [I-T3-196] | – | – | 100% | – | – | – | – | – | – | – | 100% | 3.9 | –
Cc1cc(C(F)(C(F)(F)F)C(F)(F)F)cc(C)c1-c1cnn(-c2ccc(Cl)c(C(=O)NC3CC3)c2)c1 [I-T4-1, N-cyclopropyl-2-chloro-5-[4-[2,6-dimethyl-4-[1,2,2,2-tetrafluoro-1-(trifluoromethyl)ethyl]phenyl]pyrazol-1-yl]benzamide] | – | – | 100% | – | – | – | – | – | – | – | – | – | logP [1]: 4.7; pest or weed control at 0.02 mg (Boophilus microplus; Rhipicephalus microplus, 168 h, read-out: efficacy (laying of fertile eggs)): 100%
